Measured values published in patent US6608082B1, “Treatment of erectile dysfunction using isoquinoline compound melanocortin receptor ligands” (Lion Bioscience AG, priority 1998, dated 2003).
pIC50: −log10 of the molar value. Where two headings read alike, the source gives them in different places. Each block holds one molecule with its values, some of them ahead of it.

Tests used:
MCR-4 = target: T1, MCR-4 (Homo sapiens, UniProt P32245); test: Melanocortin receptor binding assay, competition with 125I-HP 467, HEK 293 cells expressing hMCR-4; settings: for pIC50: read-out: MC-4 IC50
T1 construct: expressed in transfected cells; host or cells: HEK 293
In short: (§1)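 Intact-cell competition binding, 2.5 hr at 37 °C, in PBS/10% calf serum/1 mM CaCl2; hMCR-4 cells at 4×10^3 per tube, hMCR-1 cells at 2×10^4 per tube. Filtration on BSA/CaCl2-soaked GF/B, cold 50 mM Tris pH 7.4 washes, scintillation count.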

MCR-1 = target: T2, MCR-1 (Homo sapiens, UniProt Q01726); test: Melanocortin receptor binding assay, competition with 125I-HP 467, HEK 293 cells expressing hMCR-1; settings: for pIC50: read-out: MC-1 IC50
T2 construct: expressed in transfected cells; host or cells: HEK 293
In short: as §1

[1] = TRG 2408 and TRG 2409 libraries, inhibition of 125I-HP 467 binding
[2] = inhibition of binding of 125I-HP 467, HEK 293 cells expressing MCR-4, TRG 2414 library
[3] = inhibition of binding of 125I-HP 467, HEK 293 cells expressing MCR-1, TRG 2414 library
[4] = inhibition of binding of 125I-HP 467, HEK 293 cells expressing MCR-4
[5] = inhibition of binding of 125I-HP 467, HEK 293 cells expressing MCR-1
[6] = TRG 2414 library, inhibition of binding of 125I-HP 467, HEK 293 cells expressing MCR-4
[7] = TRG 2414 library, inhibition of binding of 125I-HP 467, HEK 293 cells expressing MCR-1
[8] = TRG 2406 and TRG 2407 libraries, inhibition of binding of 125I-HP 467
[9] = competition with 125I-HP 467, HEK 293 cells expressing MCR-4
[10] = competition with 125I-HP 467, HEK 293 cells expressing MCR-1

T1 sequence (P32245 whole entry): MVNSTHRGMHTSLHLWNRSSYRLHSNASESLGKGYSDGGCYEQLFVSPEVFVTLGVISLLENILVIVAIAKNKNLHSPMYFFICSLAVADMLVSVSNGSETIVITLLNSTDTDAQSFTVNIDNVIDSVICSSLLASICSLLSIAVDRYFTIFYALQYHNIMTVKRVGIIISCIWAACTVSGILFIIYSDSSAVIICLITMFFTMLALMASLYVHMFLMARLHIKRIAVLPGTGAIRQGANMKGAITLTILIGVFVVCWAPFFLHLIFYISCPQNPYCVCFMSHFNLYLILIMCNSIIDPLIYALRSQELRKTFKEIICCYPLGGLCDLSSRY
T2 sequence (Q01726 whole entry): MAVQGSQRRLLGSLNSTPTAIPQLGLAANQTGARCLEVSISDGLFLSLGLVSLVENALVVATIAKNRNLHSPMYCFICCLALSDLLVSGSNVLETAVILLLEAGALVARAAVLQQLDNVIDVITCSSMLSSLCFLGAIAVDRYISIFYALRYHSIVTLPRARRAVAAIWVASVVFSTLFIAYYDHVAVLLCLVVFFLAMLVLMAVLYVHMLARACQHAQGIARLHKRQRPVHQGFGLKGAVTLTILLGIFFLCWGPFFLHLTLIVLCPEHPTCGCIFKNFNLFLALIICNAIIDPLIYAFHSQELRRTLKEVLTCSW

pIC50 (MCR-4; [2]): 5.56 | pIC50 (MCR-1; [3]): 5.49
Compound: COc1ccccc1CCNCC1c2ccccc2CN(CCCCC(CN)NCc2ccccc2)C1c1cccc(Oc2ccccc2)c1 (stereo not shown) [TRG 2414-91]

pIC50 (MCR-4; [2]): 5.07 | pIC50 (MCR-1; [3]): 5.79
Compound: COc1ccc(CCNCC2c3ccccc3CN(CCCCC(CN)NCc3ccccc3)C2c2ccc(Oc3ccccc3)cc2)cc1 (stereo not shown) [TRG 2414-147]

pIC50 (MCR-4; [4]): 6.03 | pIC50 (MCR-1; [5]): 5.65
Compound: NCC(CCCN1Cc2ccccc2C(CO)C1c1ccc(O)cc1)NCCC1CCCCC1 (stereo not shown) [TRG 2415-2]

pIC50 (MCR-4; [1]): 4.60 | pIC50 (MCR-1; [1]): 5.23
Compound: CCNc1ccc(C2C(CNC3CCCCC3)c3ccccc3CN2CC[C@@H](CN)NC)cc1 (stereo partly shown) [TRG 2408-90]

MC-4 IC50 (MCR-4; [2]): no fit | pIC50 (MCR-1; [3]): 4.37
Compound: COc1ccccc1CCNCC1c2ccccc2CN(CCCCC(CN)NCC(C)c2ccc(CC(C)C)cc2)C1c1cccc(Oc2ccccc2)c1 (mixture of isomers) [TRG 2414-92]

pIC50 (MCR-4; [2]): 4.34 | pIC50 (MCR-1; [3]): 5.00
Compound: NCC(CCCCN1Cc2ccccc2C(CNCCc2cccc(Cl)c2)C1c1ccc(Oc2ccccc2)cc1)NCc1ccccc1 (stereo not shown) [TRG 2414-135]

pIC50 (MCR-4; [4]): 5.30 | pIC50 (MCR-1; [5]): 7.03
Compound: CCNc1ccc(C2C(CN)c3ccccc3CN2CCCC(CN)NCC2CC2CNCc2ccccc2)cc1 (stereo not shown) [TRG 2420-26]

pIC50 (MCR-4; [2]): 5.25 | pIC50 (MCR-1; [3]): 5.66
Compound: NCC(CCCCN1Cc2ccccc2C(CNC2CCCCCC2)C1c1ccc(Cl)cc1Cl)NCc1ccccc1 (stereo not shown) [TRG 2414-35]

pIC50 (MCR-4; [2]): 4.78 | pIC50 (MCR-1; [3]): 4.98
Compound: COc1cccc(CNCC2c3ccccc3CN(CCCCC(CN)NCCc3ccccc3)C2c2ccc(Oc3ccccc3)cc2)c1 (stereo not shown) [TRG 2414-138]

pIC50 (MCR-4; [2]): 5.67 | pIC50 (MCR-1; [3]): 5.19
Compound: COc1ccccc1CCNCC1c2ccccc2CN(CCCCC(CN)NCc2ccccc2)C1c1cc(C(F)(F)F)cc(C(F)(F)F)c1 (stereo not shown) [TRG 2414-51]

pIC50 (MCR-4; [2]): 4.81 | pIC50 (MCR-1; [3]): 4.47
Compound: NCC(N)CCCCN1Cc2ccccc2C(CNCc2ccccc2C(F)(F)F)C1c1cc(C(F)(F)F)cc(C(F)(F)F)c1 (stereo not shown) [TRG 2414-41]

pIC50 (MCR-4; [2]): 4.41 | pIC50 (MCR-1; [3]): 4.47
Compound: CCOc1ccccc1CNCC1c2ccccc2CN(CCCCC(CN)NCC(C)c2ccc(CC(C)C)cc2)C1c1cc(C(F)(F)F)cc(C(F)(F)F)c1 (stereo not shown) [TRG 2414-48]

pIC50 (MCR-4; [9]): 5.83 | pIC50 (MCR-1; [10]): 7.40
Compound: CCCCNc1ccc(C2C(CN)c3ccccc3CN2CCCCC(CN)NCCC2CCCCC2)cc1 (stereo not shown) [TRG 2411-111]
effectiveness as MC receptor ligand (MCR-1; binding to MC receptors, Table 1): particularly effective MC receptor ligands

pIC50 (MCR-4; [9]): 4.81 | pIC50 (MCR-1; [10]): 5.68
Compound: CNC(CN)CCCCN1Cc2ccccc2C(CNC2CCCCC2)C1c1ccc(NCCc2ccccc2)cc1 (stereo not shown) [TRG 2409-19]

The remaining lines, values behind:

Compound: CCNc1ccc(C2C(CNC3CCCCC3)c3ccccc3CN2CCCCC(CN)NCCNC)cc1 (stereo not shown) [TRG 2408-8]
pIC50 (MCR-4; [1]): 4.36 | pIC50 (MCR-1; [1]): 5.64

Compound: CCNc1ccc(C2C(CN)c3ccccc3CN2CCCC(CN)NCCCCN2CCCCC2)cc1 (stereo not shown) [TRG 2419-13]
pIC50 (MCR-4; [4]): 5.60 | pIC50 (MCR-1; [5]): 7.14

Compound: CCCOc1ccc(C2C(CNCCc3cccc(Cl)c3)c3ccccc3CN2CCCCC(N)CN)cc1 (stereo not shown) [Cmpd 280]
MC-4 IC50 (MCR-4; [6]): no fit | MC-1 IC50 (MCR-1; [7]): no fit

Compound: CCOc1ccc(CCNCC2c3ccccc3CN(CCCCC(CN)NCc3ccccc3)C2c2cc(C(F)(F)F)cc(C(F)(F)F)c2)cc1 (stereo not shown) [TRG 2421-21]
pIC50 (MCR-4; [4]): 5.40 | pIC50 (MCR-1; [5]): 5.59

Compound: CCNc1ccc(C2C(CNC3CCCCC3)c3ccccc3CN2CCCC[C@@H](CN)NCCc2ccccc2)cc1 (stereo partly shown) [TRG 2408-6]
pIC50 (MCR-4; [1]): 5.15 | pIC50 (MCR-1; [1]): 6.21

Compound: CCCOc1ccc(C2C(CNCCc3ccc(OC)cc3)c3ccccc3CN2CCCCC(N)CN)cc1 (stereo not shown) [Cmpd 185]
pIC50 (MCR-4; [6]): 5.37 | pIC50 (MCR-1; [7]): 6.27

Compound: NCC(CCCCN1Cc2ccccc2C(CNC2CCCCC2)C1c1ccc(Cl)cc1Cl)NCCc1ccccc1 (stereo not shown) [TRG 2408-14]
pIC50 (MCR-4; [1]): 5.26 | pIC50 (MCR-1; [1]): 5.68

Compound: COc1ccc(CCNCC2c3ccccc3CN(CCCCC(CN)NCc3ccc(OC)cc3)C2c2cc(C(F)(F)F)cc(C(F)(F)F)c2)cc1 (stereo not shown) [TRG 2421-14]
pIC50 (MCR-4; [4]): 5.77 | pIC50 (MCR-1; [5]): 5.46

Compound: COc1ccc(Oc2cccc(C3C(CNCc4ccccc4O)c4ccccc4CN3CCN)c2)cc1 (stereo not shown) [TRG 2406-5]
pIC50 (MCR-4; [8]): 5.47 | pIC50 (MCR-1; [8]): 5.21

Compound: COc1ccc(CCNCC2c3ccccc3CN(CCCCC(N)CN)C2c2ccccc2Br)cc1 (stereo not shown) [Cmpd 225]
pIC50 (MCR-4; [6]): 5.69 | pIC50 (MCR-1; [7]): 5.34
